Toxic doses and inconclusive results are not listed. No stated cut-off is given here; in the data, active means T/C of 150% or more; inactive means T/C below 125%.
Tested on: L1210 leukemia ip in BDF1 mice, survival T/C
Test: NCI In Vivo Anticancer Drug Screen. Data for tumor model L1210 Leukemia (intraperitoneal) in B6D2F1 (BDF1) mice
Details: endpoint: mean survival time, higher = longer survival
Procedure, shortened: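 Read-out is survival time, reported as the treated-group measurement over the vehicle-control measurement.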

[1] = dose: 100.0 mg/kg/injection, schedule: Q01DX001 (ip), vehicle: saline
[2] = dose: 200.0 mg/kg/injection, schedule: Q01DX001 (ip), vehicle: saline
[3] = dose: 400.0 mg/kg/injection, schedule: Q01DX001 (ip), vehicle: saline
[4] = dose: 75.0 mg/kg/injection, schedule: Q01DX001 (ip), vehicle: saline
[5] = dose: 100.0 mg/kg/injection, schedule: Q04DX002 (ip), vehicle: Klucel (hydroxypropylcellulose) (HPC)
[6] = dose: 200.0 mg/kg/injection, schedule: Q04DX002 (ip), vehicle: Klucel (hydroxypropylcellulose) (HPC)
[7] = dose: 400.0 mg/kg/injection, schedule: Q04DX002 (ip), vehicle: Klucel (hydroxypropylcellulose) (HPC)
[8] = dose: 100.0 mg/kg/injection, schedule: Q04DX002 (ip), vehicle: saline
[9] = dose: 200.0 mg/kg/injection, schedule: Q04DX002 (ip), vehicle: saline
[10] = dose: 400.0 mg/kg/injection, schedule: Q04DX002 (ip), vehicle: saline
[11] = dose: 100.0 mg/kg/injection, schedule: Q04DX003 (ip), vehicle: Klucel (hydroxypropylcellulose) (HPC)
[12] = dose: 200.0 mg/kg/injection, schedule: Q04DX003 (ip), vehicle: Klucel (hydroxypropylcellulose) (HPC)
[13] = dose: 400.0 mg/kg/injection, schedule: Q04DX003 (ip), vehicle: Klucel (hydroxypropylcellulose) (HPC)
[14] = dose: 100.0 mg/kg/injection, schedule: Q01DX001 (ip), vehicle: carboxymethylcellulose (CMC)
[15] = dose: 25.0 mg/kg/injection, schedule: Q01DX009 (ip), vehicle: saline
[16] = dose: 100.0 mg/kg/injection, schedule: Q04DX003 (ip), vehicle: saline with Tween-80
[17] = dose: 100.0 mg/kg/injection, schedule: Q01DX009 (ip), vehicle: Klucel (hydroxypropylcellulose) (HPC)
[18] = dose: 200.0 mg/kg/injection, schedule: Q01DX009 (ip), vehicle: Klucel (hydroxypropylcellulose) (HPC)
[19] = dose: 400.0 mg/kg/injection, schedule: Q01DX009 (ip), vehicle: Klucel (hydroxypropylcellulose) (HPC)
[20] = dose: 50.0 mg/kg/injection, schedule: Q01DX009 (ip), vehicle: saline
[21] = dose: 100.0 mg/kg/injection, schedule: Q01DX009 (ip), vehicle: saline

Measured: T/C

O=C(O)CN1C(=O)CNC12CCCC2
inactive: [1] 100 % of control | [2] 108 % of control | [3] 93 % of control

C1=C(N2CCCCC2)C2CCC1C2 (configuration not stated)
inactive: [4] 99 % of control

Ic1ccc2c(c1)OCCOCCOCCOCCO2
inactive: dose: 50.0 mg/kg/injection, schedule: Q04DX002 (ip), vehicle: saline with Tween-80 102 % of control | dose: 100.0 mg/kg/injection, schedule: Q04DX002 (ip), vehicle: saline with Tween-80 102 % of control | dose: 200.0 mg/kg/injection, schedule: Q04DX002 (ip), vehicle: saline with Tween-80 107 % of control

CC1C(=O)C(C)C(C(=O)O)C1C (configuration not stated)
inactive: [5] 100 % of control | [6] 107 % of control | [7] 93 % of control

Nc1scc2[nH]c3ccccc3[n+]12
inactive: [8] 100 % of control | [9] 104 % of control

CCCCCCCCCCCCCCCC(=O)NCC[N+](CC)(CC)Cc1ccc(C[N+](CC)(CC)CCNC(=O)CCCCCCCCCCCCCCC)cc1
inactive: [4] 98 % of control

N#CCCC(=O)c1cccnc1
inactive: [8] 108 % of control | [9] 90 % of control | [10] 93 % of control

O=C(CC(NC(=O)OCc1ccccc1)c1nn[nH]n1)OCc1ccccc1 (configuration not stated)
inactive: dose: 100.0 mg/kg/injection, schedule: Q01DX009 (ip), vehicle: saline with Tween-80 101 % of control | dose: 200.0 mg/kg/injection, schedule: Q01DX009 (ip), vehicle: saline with Tween-80 103 % of control | dose: 400.0 mg/kg/injection, schedule: Q01DX009 (ip), vehicle: saline with Tween-80 90 % of control

CC1(CCCC2C(=O)N(c3ccccc3)N(c3ccccc3)C2=O)OCCO1
inactive: [11] 104 % of control | [12] 98 % of control | [13] 94 % of control

CN(CN(C)NC(=O)c1ccccc1)NC(=O)c1ccccc1
inactive: [14] 98 % of control

CCCCC(C)(C)COC(=O)Nc1ccccc1
inactive: dose: 100.0 mg/kg/injection, schedule: Q04DX003 (ip), vehicle: other 92 % of control | dose: 200.0 mg/kg/injection, schedule: Q04DX003 (ip), vehicle: other 104 % of control | dose: 400.0 mg/kg/injection, schedule: Q04DX003 (ip), vehicle: other 101 % of control

CCCOc1ccc(C2=C(c3ccccc3)C(=O)C(c3ccccc3)=C2c2ccccc2)cc1
inactive: [14] 94 % of control | dose: 200.0 mg/kg/injection, schedule: Q01DX001 (ip), vehicle: carboxymethylcellulose (CMC) 100 % of control | dose: 400.0 mg/kg/injection, schedule: Q01DX001 (ip), vehicle: carboxymethylcellulose (CMC) 94 % of control

CC(=O)C1=C(O)C(c2ccccc2)c2ccccc21 (configuration not stated)
inactive: dose: 100.0 mg/kg/injection, schedule: Q01DX001 (ip), vehicle: Klucel (hydroxypropylcellulose) (HPC) 108 % of control | [11] 100 % of control | dose: 200.0 mg/kg/injection, schedule: Q01DX001 (ip), vehicle: Klucel (hydroxypropylcellulose) (HPC) 103 % of control | [12] 103 % of control | dose: 400.0 mg/kg/injection, schedule: Q01DX001 (ip), vehicle: Klucel (hydroxypropylcellulose) (HPC) 100 % of control | [13] 95 % of control

CCOC(=O)CC(CC(=O)OCC)C(=O)OCC
inactive: [8] 104 % of control | [9] 96 % of control | [10] 107 % of control

CN(CC#CCOc1ccc(Cl)cc1Cl)c1ccccc1
inactive: [5] 102 % of control | [6] 98 % of control | [7] 91 % of control

C[N+](C)(C)CCOC(=O)c1cccc(CBr)c1CBr
inactive: dose: 6.25 mg/kg/injection, schedule: Q01DX009 (ip), vehicle: saline 103 % of control | dose: 6.25 mg/kg/injection, schedule: Q04DX003 (ip), vehicle: saline 104 % of control | dose: 12.5 mg/kg/injection, schedule: Q01DX009 (ip), vehicle: saline 97 % of control | dose: 12.5 mg/kg/injection, schedule: Q04DX003 (ip), vehicle: saline 98 % of control | [15] 97 % of control | dose: 25.0 mg/kg/injection, schedule: Q04DX003 (ip), vehicle: saline 104 % of control

O=C1c2ccccc2C(=O)c2c(Nc3ccccc3)ccc(O)c21
inactive: [11] 97 % of control | [12] 98 % of control

c1ccc(-n2nc3c(c2-c2ccc(OCCN4CCCC4)cc2)CCCc2ccccc2-3)cc1
inactive: [16] 88 % of control

O=c1[nH]cc(Cl)cc1Cl
inactive: [17] 94 % of control | [18] 94 % of control | [19] 108 % of control

CN=C(N)NC
inactive: [20] 94 % of control | [21] 100 % of control | [16] 98 % of control | dose: 200.0 mg/kg/injection, schedule: Q01DX009 (ip), vehicle: saline 91 % of control | dose: 200.0 mg/kg/injection, schedule: Q04DX003 (ip), vehicle: saline with Tween-80 97 % of control

Cc1c2ccccc2cc2c1ccc1cccc(F)c12
inactive: dose: 12.5 mg/kg/injection, schedule: Q01DX009 (ip), vehicle: saline with Tween-80 107 % of control | dose: 25.0 mg/kg/injection, schedule: Q01DX009 (ip), vehicle: saline with Tween-80 104 % of control | dose: 50.0 mg/kg/injection, schedule: Q01DX009 (ip), vehicle: saline with Tween-80 96 % of control

CCOC(=O)C(=O)O
inactive: [15] 96 % of control | [20] 103 % of control | [21] 96 % of control | [8] 106 % of control | [9] 109 % of control | [10] 97 % of control

Cc1ccc(CNC(=O)Nc2cccc(Cl)c2)cc1C
inactive: [17] 97 % of control | [18] 92 % of control | [19] 103 % of control

CCOC(=O)CCc1c(C)c2ccc(O)cc2oc1=O
inactive: [1] 98 % of control | [2] 104 % of control | [3] 94 % of control

Cc1nc(C#N)c(N)o1
inactive: dose: 5.0 mg/kg/injection, schedule: Q01DX001 (ip), vehicle: saline 103 % of control | dose: 10.0 mg/kg/injection, schedule: Q01DX001 (ip), vehicle: saline 103 % of control | dose: 20.0 mg/kg/injection, schedule: Q01DX001 (ip), vehicle: saline 98 % of control

CC(=O)CCC(C)(C)[N+](=O)[O-]
inactive: dose: 75.0 mg/kg/injection, schedule: Q01DX009 (ip), vehicle: acetone 97 % of control | dose: 150.0 mg/kg/injection, schedule: Q01DX009 (ip), vehicle: acetone 94 % of control | dose: 300.0 mg/kg/injection, schedule: Q01DX009 (ip), vehicle: acetone 95 % of control

CN(C)CCCNC(=S)S
inactive: dose: 6.0 mg/kg/injection, schedule: Q01DX009 (ip), vehicle: saline 106 % of control | dose: 12.0 mg/kg/injection, schedule: Q01DX009 (ip), vehicle: saline 100 % of control | [15] 111 % of control

Reference: PubChem BioAssay AID248 (DTP/NCI, 2004)
